Experimental data as given in patent publication US20160339057A1, “NOVEL COMPOSITION METHOD OF USING THE SAME FOR THE TREATMENT OF LYME DISEASE” (priority 2014, published 2016).

Legend:
[1] = tested on: biofilm of B. burgdorferi; assay: Biofilm on extracellular matrix proteins, crystal violet staining; type: cell-based, Borrelia burgdorferi B31; settings: 5 extracellular matrix proteins, most effective concentration
Description: (§1) Qualitative effect of the test compounds against biofilm-like colonies of B. burgdorferi and B. garinii was evaluated using commonly used and well accepted crystal violet (CV) staining method, according to protocol provided by Sapi et al. Infection and Drug Resistance 2011. Briefly, for curable effect, 1×10^7 CFU/ml from homogeneous cultures of spirochetes were inoculated in extracellular matrix proteins (i.e. matrigel, collagen type I, fibrinogen, hyaluronan, and chondroitin sulfate) coated four-well chambers and incubated for 1 week, respectively. After the 1 week of incubation, biofilm-like colonies were treated with various compounds/mixtures. For preventive effect, 1×10^7 CFU/ml from homogeneous cultures of spirochetes complemented with various compounds/mixtures were inoculated in extracellular matrix proteins (i.e. matrigel, collagen type I, fibrinogen, hyaluronan, and chondroitin sulfate) coated four-well chambers and incubated for 1 week, respectively. Control wells were treated with ethanol (i.e. 0.1-0.4 vol/vol) alone. For doxycycline, as a positive control, the final used concentration was […]. The chambers were then incubated at 33° C. for 72 h. […] The biofilm-like colonies were carefully washed three times with 1×PBS and 1 ml of methanol was added to each well to extract a dye, which was measured at 595 nm wavelength.

[2] = tested on: spirochetes of B. garinii; assay: Susceptibility of spirochetes, dark-field microscopy; type: cell-based, Borrelia garinii CIP103362; settings: most effective concentration (doxycycline: commonly tested concentration, 250 μg/ml), up to 7 days
Description: (§2) To determine what compound/mixture will inhibit visible growth of B. burgdorferi and B. garinii, a new and accepted micro-dilution method was used according to Sapi et al. Infection and Drug Resistance 2011. Briefly, sterile 1.5 ml test tightly caps screwed tubes containing 1 ml BSK-H medium, supplemented with the test compound of interest were inoculated with 2×10^6 CFU/ml of the homogenous bacterial suspension. The tubes were then incubated at 33° C. and growth was monitored at regular intervals for up to 72 h. The whole experiment was repeated three times for each strain and each concentration. Control cultures were treated with ethanol (i.e. 0.1-0.4 vol/vol) alone. For doxycycline, the final used concentration was 250 μg/m1. Cell growth was assessed by a bacterial Petroff-Hausser counting chamber after the 0 hour, 24 hrs, 48 hrs, 72 hrs and 7 days of incubation using dark field microscopy (direct cell counting), as a standard procedure.

[3] = tested on: spirochetes of B. burgdorferi; assay: as above; type: cell-based, Borrelia burgdorferi B31; settings: most effective concentration (doxycycline: commonly tested concentration, 250 μg/ml), up to 7 days
Description: as §2

[4] = tested on: rounded forms of B. burgdorferi; assay: Susceptibility of rounded forms, SYTO 9 / propidium iodide fluorescent microscopy; type: cell-based, Borrelia burgdorferi B31; settings: most effective concentration, up to 7 days
Description: (§3) To determine what compound/mixture will have the bactericidal effect a fluorescence method was used according to Sapi et al. Infection and Drug Resistance 2011. Briefly, 2×10^6 CFU/ml of the homogenous bacterial suspension was inoculated into each sterile 1.5 ml test tightly caps screwed tubes containing 1 ml BSK-H medium, supplemented with the test compound/mixture of interest. Control cultures were treated with ethanol (i.e. 0.1-0.4 vol/vol) alone. For doxycycline, as a positive control, the final used concentration was 250 μg/m1. The tubes were then incubated at 33° C. and viability was monitored at regular intervals for up to 72 h. The whole experiment was repeated three times for each strain and each concentration. The susceptibility of spirochetes and round body forms to the test compound was then assessed after 24 h, 48 h, 72 h and 7 days by LIVE/DEAD® BacLight™ Bacterial Viability Assay using fluorescent microscopy, were the ratio of live (green) and dead (red) B. burgdorferi and B. garinii morphological forms were calculated.

[5] = tested on: rounded forms of B. garinii; assay: as above; type: cell-based, Borrelia garinii CIP103362; settings: most effective concentration, up to 7 days
Description: as §3

biofilm of B. garinii = assay: Biofilm on extracellular matrix proteins, crystal violet staining; type: cell-based, Borrelia garinii CIP103362; settings: 5 extracellular matrix proteins, most effective concentration
Description: as §1

Compound: C[C@H]1c2cccc(O)c2C(=O)C2=C(O)[C@]3(O)C(=O)C(C(N)=O)=C(O)[C@@H](N(C)C)[C@@H]3[C@@H](O)[C@@H]21 [doxycycline]
- biofilm eradicated (curable effect) ([1]; 3 days post-treatment): 5-40%
- biofilm formation prevented (preventive effect) ([1]; after 7 days): 40-60%
- decrease of amount of spiral forms [2]: 60-75%
- decrease of amount of spiral forms [3]: 60-75%
- increase of dead of rounded forms [4]: 5-10%
- rounded forms formation generated [4]: about 2 times
- increase of dead of rounded forms [5]: 5-10%
- rounded forms formation generated [5]: about 2 times
- biofilm eradicated (curable effect) (biofilm of B. garinii; 3 days post-treatment): 5-40%
- biofilm formation prevented (preventive effect) (biofilm of B. garinii; after 7 days): 40-60%
